The text below walks through data of patent publication US11364242B2, “Treatment agents for inhibiting HIV and cancer in HIV infected patients” (UNIVERSITY OF MARYLAND, BALTIMORE, priority 2015, dated 2022).

Data set [1] has as its system chronically HIV-infected U1 cell line. Nature of the data set: HIV activation in chronically infected U1 cells, p24 ELISA. It is filed as cell-based. To be noted: INK128 <10 nM, day 3. The procedure: FIG. 5A-5C are bar graphs that illustrate INK128's inhibition of HIV activation in chronically infected cells. Latently HIV infected U1 cells were cultured in the presence of various concentrations of INK128 for 1 hour. Cultures were then untreated (FIG. 5A), or treated with HIV inducers PMA (FIG. 5B) and Tat protein (FIG. 5C). HIV production was measured by p24 ELISA in the culture supernatants on day 3 according to an embodiment.
The effects of INK128 on activation of HIV in the chronically HIV-infected U1 cell line were examined. The U1 cell line carries two copies of the HIV provirus per cell (33). Under basal conditions, U1 cells express low levels of HIV, but HIV expression is enhanced by stimulation with the phorbol ester PMA or by exogenous addition of Tat (34, 35). U1 cells were cultured in the presence of INK128 in the absence and presence of 10 nM PMA or 1 μg/mL Tat. […] As expected, unstimulated U1 cells produced low levels of HIV p24, but production was increased by addition of PMA or Tat.
A general note: ELISA stands for enzyme-linked immunosorbent assay.

The subject of a further data set is HIV-1 93BR029. Nature of the data set: PBL infectivity assay, primary isolate. To be noted: Human immunodeficiency virus 1, PBMC; R5 primary isolate, PBMCs, three donors; read-out: Geometric mean INK128 EC50, nM (95% CI). Type of data set: cell-based. The text has this: (§1) PBLs were isolated from buffy coats of HIV seronegative donors (New York Blood Center). The laboratory-adapted strains HIV BaL and HIV HXB2; primary isolates HIV 92BR020, 92UG031, 93BR029, and 93UG082; and multidrug resistant molecular clone NL4329129-2 were obtained from the NIH AIDS Repository. Primary isolate 2044 was from Paul Clapham (Windeyer Institute), and 1633 and 1638 from the Institute of Human Virology (University of Maryland School of Medicine). Maraviroc, efavirenz, raltegravir, and indinavir were from the NIH AIDS Repository. INK128 was purchased from ApexBio. Proliferation of PBLs was measured by the MTT kit (Roche), following the manufacturer's directions. PBL infectivity assays were performed as described herein.
(§2) PBLs were separated from buffy coats by density centrifugation over Ficoll-Hypaque (Sigma™), and activated by culture in the presence of 1 μg/mL anti-human CD3 antibody (clone x35, Fisher Scientific™) and 2 μg/mL anti-human CD28 antibody (Clone CD28.6, eBioscience™) for 3 days. Activated cells were infected by incubation with virus at a multiplicity of infection (MOI) of 0.001 for 2 hours. Infected cells were washed three times with PBS and cultured in 5% CO2 at 37° C., in RPMI/10% FBS supplemented with 100 units/mL IL-2 (Roche™) and antiviral drugs, in 96-well flat-bottom plates at a density of […] PBLs per 200 μL. Following 3 d of culture, half of the medium was replaced with fresh medium containing IL-2 and antiviral drugs. On day 7, viral replication was measured by p24 ELISA (Coulter) in culture supernatants and cell viability was measured by MTT assays.
(§3) EC50 values were determined by variable slope nonlinear regression analysis. Unpaired two-tailed t tests were used to check for statistical significant differences between INK128 EC50 values of R5 HIV versus X4 HIV in infectivity assays. Nonparametric Mann-Whitney tests were used to compare each treatment group and control group in animal studies. Statistical analyses were performed using GraphPad Prism™ (version 4.0). P<0.05 was considered significant.
(§4) The antiviral activity of INK128 was investigated in PBLs infected with CCR5 (R5)-tropic and CXCR4 (X4)-tropic HIV reference strains BaL and HXB2, respectively.

A further data set concerns HIV-1 1633. Nature of the data set: PBL infectivity assay, primary isolate. Type of data set: cell-based. To be noted: Human immunodeficiency virus 1, PBMC; X4 primary isolate, PBMCs, three donors; read-out: Geometric mean INK128 EC50, nM (95% CI).
Text: as §1, §2, §3, §4

The subject of a further data set is HIV-1 1638. The data set is described as follows: PBL infectivity assay, primary isolate. It is filed as cell-based. The following applies: Human immunodeficiency virus 1, PBMC; X4 primary isolate, PBMCs, three donors; read-out: Geometric mean INK128 EC50, nM (95% CI).
Text: as §1, §2, §3, §4

The subject of another data set is HIV-1 2044. The data set is described as follows: PBL infectivity assay, primary isolate. It is filed as cell-based. The following applies: Human immunodeficiency virus 1, PBMC; X4 primary isolate, PBMCs, three donors; read-out: Geometric mean INK128 EC50, nM (95% CI).
Text: as §1, §2, §3, §4

A further data set deals with HIV-1 92BR020. Nature of the data set: PBL infectivity assay, primary isolate. It is filed as cell-based. To be noted: Human immunodeficiency virus 1, PBMC; R5 primary isolate, PBMCs, three donors; read-out: Geometric mean INK128 EC50, nM (95% CI).
Text: as §1, §2, §3, §4

In a further data set the test system is HIV-1 93UG082. The data set is described as follows: PBL infectivity assay, primary isolate. It is filed as cell-based. The following applies: Human immunodeficiency virus 1, PBMC; R5 primary isolate, PBMCs, three donors; read-out: Geometric mean INK128 EC50, nM (95% CI).
Text: as §1, §2, §3, §4

The test system of the next data set is HIV-1 92UG031. The data set is described as follows: PBL infectivity assay, primary isolate. Type of data set: cell-based. To be noted: Human immunodeficiency virus 1, PBMC; R5 primary isolate, PBMCs, three donors; read-out: Geometric mean INK128 EC50, nM (95% CI).
Text: as §1, §2, §3, §4

Another data set concerns CD4. The data set is described as follows: Flow cytometry quantitation of surface receptor on PBLs. To be noted: IL-2, 7 days, three donors. Background: Flow cytometry measures light scatter and fluorescence of single cells or particles in a stream.
The subject of a further data set is U1 cells. The data set is described as follows: U1 cell proliferation (optimization experiments). It is filed as cell-based. The following applies: concentrations higher than 10 nM.
The test system of a further data set is R5 HIV BaL. Nature of the data set: PBL infectivity assay, p24 ELISA day 7. Type of data set: cell-based, HIV-1. The following applies: Human immunodeficiency virus 1, BAL; PBLs from three donors.
Text: as §1
(§5) PBLs were separated from buffy coats by density centrifugation over Ficoll-Hypaque (Sigma™), and activated by culture in the presence of 1 μg/mL anti-human CD3 antibody (clone x35, Fisher Scientific™) and 2 μg/mL anti-human CD28 antibody (Clone CD28.6, eBioscience™) for 3 days. Activated cells were infected by incubation with virus at a multiplicity of infection (MOI) of 0.001 for 2 hours. […] On day 7, viral replication was measured by p24 ELISA (Coulter) in culture supernatants and cell viability was measured by MTT assays.
(§6) EC50 values were determined by variable slope nonlinear regression analysis. […]

In another data set the test system is X4 HIV HXB2. Nature of the data set: PBL infectivity assay, p24 ELISA day 7. It is filed as cell-based, HIV-1. The following applies: Human immunodeficiency virus 1, HXB2; PBLs from three donors.
Text: as §1, §5, §6

Data set [2] relates to full-length unspliced HIV mRNA. Nature of the data set: RT-PCR of unspliced HIV mRNA in U1 cells. Type of data set: cell-based. To be noted: 10 nM PMA, 2 days. The procedure:
FIG. 6 is a bar graph that depicts how INK128 inhibits HIV transcription in U1 cells. U1 cells were cultured in the presence of 10 nM PMA and the indicated concentrations of INK128. After 2 days, cells were collected, mRNA isolated, quantified, reverse transcribed and amplified by real time PCR using unspliced HIV cDNA primer pair US.1a/US.2a and housekeeping [beta]-actin primers. For quantification, standard curves for unspliced HIV cDNA and [beta]-actin sequences were generated by performing 10-fold serial dilutions of mRNA isolated from PBLs acutely infected with HIV BaL. PCR amplification was performed using Quantitect® SYBR Green PCR Kit in a LightCycler®. Negative controls consisted of mixture reactions without the reverse transcription step according to an embodiment.
Total cellular RNA was isolated using the Qiagen™ RNA Isolation Kit (Qiagen™) RNA was then treated with DNase I, Amplification Grade (Invitrogen™), and reverse transcribed with SuperScript III First-Strand Synthesis Supermix™ (Invitrogen™) using hexamer primers. An aliquot of the cDNA was used as a template for PCR amplification of full length, unspliced HIV cDNA using primers US.1a and US.2a, and another aliquot for amplification with primer pairs specific for housekeeping [beta]-actin sequences (63).
The effects of INK128 on activation of HIV in the chronically HIV-infected U1 cell line were examined. […]

Usually EC50 stands for the concentration needed to bring the measured effect to its halfway point. Regarding `CC(C)n1nc(-c2ccc3oc(N)nc3c2)c2c(N)ncnc21` [INK128, 5-(4-amino-1-propan-2-ylpyrazolo[3,4-d]pyrimidin-3-yl)-1,3-benzoxazol-2-amine], the p24 production result in [1] (U1 cells treated with 10 nM PMA), in [1] (U1 cells treated with 1 μg/mL Tat) and in data set [1] (untreated U1 cells) was “inhibited p24 production” in each case. In addition, the EC50 in the data set on HIV-1 93BR029 was 4.73 nM; in the data set on HIV-1 1633, 17.5 nM; with HIV-1 1638, 21.2 nM; with HIV-1 2044, 36.7 nM; in the data set with HIV-1 92BR020, 1.03 nM; in the data set on HIV-1 93UG082 it was 2.89 nM. Further, the EC50 in the data set with HIV-1 92UG031 came out at 10.2 nM; with R5 HIV BaL it was 10.5 nM; in the data set on X4 HIV HXB2, 38 nM. In the data set on CD4, the CD4 receptor levels result is “did not impact”. Moreover, in the data set with U1 cells, the “cell proliferation of U1 cells” value is reported as “inhibition of cell proliferation”. Further, the “synthesis of full-length unspliced HIV mRNA” value in data set [2] is listed as “inhibits synthesis”.
